# Reference: patent US11767310B2, “Nicotinamide RIPK1 inhibitors” (AbbVie Inc., priority 2021, dated 2023)
# Like-named read-outs stand apart in the source and are kept apart here.
# Legend:
# Assay in all cases: Kinase binding screen
# Settings in all cases: read-out: Percent Control at 100 nM Compound Concentration
# CAMK4 = CAMK4 (Homo sapiens (Human), UniProt Q16566)
# CSK = CSK (Homo sapiens (Human), UniProt P41240)
# PAK3 = PAK3 (Homo sapiens (Human), UniProt O75914)
# MINK = MINK (Homo sapiens (Human), UniProt Q8N4C8)
# GSK3A = GSK3A (Homo sapiens (Human), UniProt P49840)
# FLT3(D835H) = FLT3(D835H) (Homo sapiens (Human), UniProt P36888, D835H)
# MKK7 = MKK7 (Homo sapiens (Human), UniProt O14733)
# TNIK = TNIK (Homo sapiens (Human), UniProt Q9UKE5)
# ALK = ALK (Homo sapiens (Human), UniProt Q9UM73)
# [1] = target: ABL1(E255K)-phosphorylated (Homo sapiens (Human), UniProt P00519, E255K)
# MARK4 = MARK4 (Homo sapiens (Human), UniProt Q96L34)
# CAMK2A = CAMK2A (Homo sapiens (Human), UniProt Q9UQM7)
# TLK2 = TLK2 (Homo sapiens (Human), UniProt Q86UE8)
# [2] = target: RSK1(Kin.Dom.1-N-terminal) (Homo sapiens (Human), UniProt Q15418)
# CDK4 = CDK4 (Homo sapiens (Human), UniProt P11802)
# BLK = BLK (Homo sapiens (Human), UniProt P51451)
# PFTAIRE2 = PFTAIRE2 (Homo sapiens (Human), UniProt Q96Q40)
# PAK1 = PAK1 (Homo sapiens (Human), UniProt Q13153)
# RIOK3 = RIOK3 (Homo sapiens (Human), UniProt O14730)
# DYRK1A = DYRK1A (Homo sapiens (Human), UniProt Q13627)
# SGK3 = SGK3 (Homo sapiens (Human), UniProt Q96BR1)
# CLK3 = CLK3 (Homo sapiens (Human), UniProt P49761)
# FLT3 = FLT3 (Homo sapiens (Human), UniProt P36888)
# MLK1 = MLK1 (Homo sapiens (Human), UniProt P80192)
# EPHB1 = EPHB1 (Homo sapiens (Human), UniProt P54762)
# NEK4 = NEK4 (Homo sapiens (Human), UniProt P51957)
# SRPK1 = SRPK1 (Homo sapiens (Human), UniProt Q96SB4)
# CSNK2A1 = CSNK2A1 (Homo sapiens (Human), UniProt P68400)
# YANK3 = YANK3 (Homo sapiens (Human), UniProt Q86UX6)
# Sequence of TNIK (Q9UKE5 whole entry): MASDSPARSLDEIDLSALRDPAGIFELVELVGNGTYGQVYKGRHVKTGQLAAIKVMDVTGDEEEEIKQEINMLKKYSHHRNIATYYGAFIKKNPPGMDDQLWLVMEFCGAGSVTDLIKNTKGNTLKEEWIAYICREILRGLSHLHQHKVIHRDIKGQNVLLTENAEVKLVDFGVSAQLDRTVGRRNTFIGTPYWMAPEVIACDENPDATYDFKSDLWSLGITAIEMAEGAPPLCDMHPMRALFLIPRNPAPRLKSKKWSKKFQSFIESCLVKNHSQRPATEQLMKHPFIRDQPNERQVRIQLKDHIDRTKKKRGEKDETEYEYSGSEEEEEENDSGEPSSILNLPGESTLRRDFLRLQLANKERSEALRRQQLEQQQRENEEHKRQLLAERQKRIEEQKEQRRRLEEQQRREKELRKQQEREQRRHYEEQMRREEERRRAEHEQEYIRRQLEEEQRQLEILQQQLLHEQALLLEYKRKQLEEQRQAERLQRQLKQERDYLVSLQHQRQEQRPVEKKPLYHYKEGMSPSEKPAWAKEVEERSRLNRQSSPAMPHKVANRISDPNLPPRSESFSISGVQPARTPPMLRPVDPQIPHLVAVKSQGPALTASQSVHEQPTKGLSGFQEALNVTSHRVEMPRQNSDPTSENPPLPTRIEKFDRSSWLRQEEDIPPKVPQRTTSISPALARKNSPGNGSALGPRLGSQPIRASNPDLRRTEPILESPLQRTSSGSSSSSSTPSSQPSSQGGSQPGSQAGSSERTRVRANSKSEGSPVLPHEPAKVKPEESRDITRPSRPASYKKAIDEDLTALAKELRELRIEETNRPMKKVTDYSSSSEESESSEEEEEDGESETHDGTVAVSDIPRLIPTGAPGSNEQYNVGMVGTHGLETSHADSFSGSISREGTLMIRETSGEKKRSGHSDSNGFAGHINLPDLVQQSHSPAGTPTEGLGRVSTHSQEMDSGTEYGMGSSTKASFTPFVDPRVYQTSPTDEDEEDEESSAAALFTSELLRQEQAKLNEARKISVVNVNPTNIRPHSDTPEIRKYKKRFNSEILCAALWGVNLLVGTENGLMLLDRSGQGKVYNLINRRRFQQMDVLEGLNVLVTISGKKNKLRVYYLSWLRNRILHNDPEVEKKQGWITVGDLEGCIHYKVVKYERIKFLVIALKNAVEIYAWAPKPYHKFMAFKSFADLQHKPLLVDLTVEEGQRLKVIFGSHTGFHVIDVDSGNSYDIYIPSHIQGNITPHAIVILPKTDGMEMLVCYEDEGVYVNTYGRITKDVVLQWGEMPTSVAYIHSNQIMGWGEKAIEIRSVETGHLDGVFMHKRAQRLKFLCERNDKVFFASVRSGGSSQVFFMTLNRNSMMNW
# Sequence of TLK2 (Q86UE8 whole entry): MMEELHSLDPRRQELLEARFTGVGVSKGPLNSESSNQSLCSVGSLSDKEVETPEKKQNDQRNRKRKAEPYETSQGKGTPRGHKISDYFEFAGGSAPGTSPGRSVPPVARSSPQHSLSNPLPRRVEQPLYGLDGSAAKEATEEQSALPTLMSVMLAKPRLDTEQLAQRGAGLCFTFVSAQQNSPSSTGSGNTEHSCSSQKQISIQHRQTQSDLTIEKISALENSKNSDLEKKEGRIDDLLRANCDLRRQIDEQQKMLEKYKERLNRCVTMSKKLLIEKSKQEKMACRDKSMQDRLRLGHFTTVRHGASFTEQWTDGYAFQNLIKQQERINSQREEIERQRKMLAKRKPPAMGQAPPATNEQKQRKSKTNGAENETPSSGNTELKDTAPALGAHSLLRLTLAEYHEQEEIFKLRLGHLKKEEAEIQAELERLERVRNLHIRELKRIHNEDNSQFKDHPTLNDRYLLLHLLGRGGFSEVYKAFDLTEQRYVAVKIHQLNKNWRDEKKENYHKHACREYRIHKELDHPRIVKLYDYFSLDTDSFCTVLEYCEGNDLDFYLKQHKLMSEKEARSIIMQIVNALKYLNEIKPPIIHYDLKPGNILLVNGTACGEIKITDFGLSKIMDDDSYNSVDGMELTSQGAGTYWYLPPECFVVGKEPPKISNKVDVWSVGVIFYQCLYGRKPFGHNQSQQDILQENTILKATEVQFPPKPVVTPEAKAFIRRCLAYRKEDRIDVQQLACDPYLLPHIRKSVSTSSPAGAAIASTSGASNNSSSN
# Sequence of SGK3 (Q96BR1 whole entry): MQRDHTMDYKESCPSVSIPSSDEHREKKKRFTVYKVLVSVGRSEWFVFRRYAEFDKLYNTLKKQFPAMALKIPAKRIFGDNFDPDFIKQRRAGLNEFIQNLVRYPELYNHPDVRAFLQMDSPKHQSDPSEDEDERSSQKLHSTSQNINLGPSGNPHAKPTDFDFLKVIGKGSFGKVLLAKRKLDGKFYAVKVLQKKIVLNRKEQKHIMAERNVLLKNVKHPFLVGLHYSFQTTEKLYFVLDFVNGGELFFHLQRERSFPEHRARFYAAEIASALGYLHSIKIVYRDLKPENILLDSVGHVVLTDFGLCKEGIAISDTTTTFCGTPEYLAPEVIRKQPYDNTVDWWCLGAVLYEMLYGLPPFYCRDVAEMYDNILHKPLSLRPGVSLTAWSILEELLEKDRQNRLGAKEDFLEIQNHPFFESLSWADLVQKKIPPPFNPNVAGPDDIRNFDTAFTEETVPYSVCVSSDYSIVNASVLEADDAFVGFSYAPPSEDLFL
# Sequence of BLK (P51451 whole entry): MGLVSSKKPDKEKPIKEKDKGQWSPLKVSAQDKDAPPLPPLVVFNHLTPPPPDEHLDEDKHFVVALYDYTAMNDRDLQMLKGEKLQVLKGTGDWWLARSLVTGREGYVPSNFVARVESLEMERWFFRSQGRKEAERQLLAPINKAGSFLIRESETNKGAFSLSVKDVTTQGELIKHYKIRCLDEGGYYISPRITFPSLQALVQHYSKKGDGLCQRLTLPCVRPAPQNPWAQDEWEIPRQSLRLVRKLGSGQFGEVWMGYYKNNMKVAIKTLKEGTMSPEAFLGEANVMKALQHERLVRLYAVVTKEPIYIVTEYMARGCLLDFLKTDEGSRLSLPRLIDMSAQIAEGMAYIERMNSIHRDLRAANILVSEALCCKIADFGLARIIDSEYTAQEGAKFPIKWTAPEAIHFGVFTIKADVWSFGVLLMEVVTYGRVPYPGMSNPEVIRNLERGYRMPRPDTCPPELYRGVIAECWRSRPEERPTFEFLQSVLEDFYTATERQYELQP
# Sequence of EPHB1 (P54762 18-984): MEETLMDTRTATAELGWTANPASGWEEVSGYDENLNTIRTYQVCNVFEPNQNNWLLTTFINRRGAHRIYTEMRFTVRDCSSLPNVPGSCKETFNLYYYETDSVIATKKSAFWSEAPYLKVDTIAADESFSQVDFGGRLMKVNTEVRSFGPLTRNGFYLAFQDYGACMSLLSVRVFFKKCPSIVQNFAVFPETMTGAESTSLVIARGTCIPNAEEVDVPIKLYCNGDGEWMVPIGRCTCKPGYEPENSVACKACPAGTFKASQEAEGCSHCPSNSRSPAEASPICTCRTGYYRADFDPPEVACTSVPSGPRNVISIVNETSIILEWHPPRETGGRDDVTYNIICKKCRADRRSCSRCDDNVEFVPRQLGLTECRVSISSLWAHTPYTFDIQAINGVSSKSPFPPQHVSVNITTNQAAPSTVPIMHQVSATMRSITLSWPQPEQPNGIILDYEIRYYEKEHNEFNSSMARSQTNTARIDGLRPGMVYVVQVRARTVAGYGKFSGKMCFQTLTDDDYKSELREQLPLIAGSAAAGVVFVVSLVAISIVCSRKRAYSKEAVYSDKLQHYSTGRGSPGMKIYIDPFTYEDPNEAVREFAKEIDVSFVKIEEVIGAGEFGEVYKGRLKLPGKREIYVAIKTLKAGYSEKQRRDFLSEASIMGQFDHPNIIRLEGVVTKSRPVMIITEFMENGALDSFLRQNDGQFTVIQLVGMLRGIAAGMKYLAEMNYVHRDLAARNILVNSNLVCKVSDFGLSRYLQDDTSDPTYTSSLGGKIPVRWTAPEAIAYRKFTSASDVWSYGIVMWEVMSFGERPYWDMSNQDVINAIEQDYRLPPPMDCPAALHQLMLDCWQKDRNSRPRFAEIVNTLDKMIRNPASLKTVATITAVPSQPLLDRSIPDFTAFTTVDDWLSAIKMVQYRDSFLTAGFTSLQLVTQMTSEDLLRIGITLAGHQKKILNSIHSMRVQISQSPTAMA
# Sequence of CDK4 (P11802 whole entry): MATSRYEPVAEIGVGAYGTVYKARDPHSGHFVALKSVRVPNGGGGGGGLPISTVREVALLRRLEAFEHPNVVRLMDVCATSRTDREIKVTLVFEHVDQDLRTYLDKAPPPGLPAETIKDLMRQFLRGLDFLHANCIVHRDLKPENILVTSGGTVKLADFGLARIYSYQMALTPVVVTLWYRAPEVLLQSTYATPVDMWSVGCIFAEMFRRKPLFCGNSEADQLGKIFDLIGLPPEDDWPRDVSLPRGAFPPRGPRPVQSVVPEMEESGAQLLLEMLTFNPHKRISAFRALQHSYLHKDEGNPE
# Sequence of CAMK4 (Q16566 whole entry): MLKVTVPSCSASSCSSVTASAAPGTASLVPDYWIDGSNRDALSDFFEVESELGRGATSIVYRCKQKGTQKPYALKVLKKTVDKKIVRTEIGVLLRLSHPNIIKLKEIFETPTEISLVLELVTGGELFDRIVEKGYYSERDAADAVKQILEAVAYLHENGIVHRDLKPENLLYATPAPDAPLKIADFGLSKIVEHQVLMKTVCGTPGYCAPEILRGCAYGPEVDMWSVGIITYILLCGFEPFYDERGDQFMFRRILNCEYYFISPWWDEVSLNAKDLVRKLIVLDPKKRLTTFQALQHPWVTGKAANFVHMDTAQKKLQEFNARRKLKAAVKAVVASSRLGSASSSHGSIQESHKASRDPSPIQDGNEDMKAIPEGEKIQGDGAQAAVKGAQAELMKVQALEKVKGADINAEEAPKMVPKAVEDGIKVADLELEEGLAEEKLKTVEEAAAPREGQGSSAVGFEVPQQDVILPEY
smiles,measurement,setting,value
"CN(C[C@@H](O)Cc1ccccc1)C(=O)c1cncc(C#Cc2cnn(C(F)F)c2)c1 [Example 2, (S)-5-((1-(difluoromethyl)-1H-pyrazol-4-yl)ethynyl)-N-(2-hydroxy-3-phenylpropyl)-N-methylnicotinamide]",remaining activity at 0.1 µM,CAMK4; CAMK4,100%
same,remaining activity at 0.1 µM,CSK; CSK,98%
same,remaining activity at 0.1 µM,PAK3; PAK3,71%
same,remaining activity at 0.1 µM,MINK; MINK,100%
same,remaining activity at 0.1 µM,GSK3A; GSK3A,100%
same,remaining activity at 0.1 µM,FLT3(D835H); FLT3(D835H),100%
same,remaining activity at 0.1 µM,MKK7; MKK7,98%
same,remaining activity at 0.1 µM,TNIK; TNIK,100%
same,remaining activity at 0.1 µM,ALK; ALK,100%
same,remaining activity at 0.1 µM,[1]; ABL1(E255K)-phosphorylated,86%
same,remaining activity at 0.1 µM,MARK4; MARK4,91%
same,remaining activity at 0.1 µM,CAMK2A; CAMK2A,97%
same,remaining activity at 0.1 µM,TLK2; TLK2,100%
same,remaining activity at 0.1 µM,[2]; RSK1(Kin.Dom.1-N-terminal),96%
same,remaining activity at 0.1 µM,CDK4; CDK4,100%
same,remaining activity at 0.1 µM,BLK; BLK,85%
same,remaining activity at 0.1 µM,PFTAIRE2; PFTAIRE2,100%
same,remaining activity at 0.1 µM,PAK1; PAK1,100%
same,remaining activity at 0.1 µM,RIOK3; RIOK3,100%
same,remaining activity at 0.1 µM,DYRK1A; DYRK1A,90%
same,remaining activity at 0.1 µM,SGK3; SGK3,100%
same,remaining activity at 0.1 µM,CLK3; CLK3,97%
same,remaining activity at 0.1 µM,FLT3; FLT3,100%
same,remaining activity at 0.1 µM,MLK1; MLK1,100%
same,remaining activity at 0.1 µM,EPHB1; EPHB1,100%
same,remaining activity at 0.1 µM,NEK4; NEK4,100%
same,remaining activity at 0.1 µM,SRPK1; SRPK1,100%
same,remaining activity at 0.1 µM,CSNK2A1; CSNK2A1,98%
same,remaining activity at 0.1 µM,YANK3; YANK3,67%
"CN(C[C@H](Cc1ccccc1)OP(=O)(O)O)C(=O)c1cncc(C#Cc2cnn(C(F)F)c2)c1 [Example 19, (S)-1-(5-((1-(difluoromethyl)-1H-pyrazol-4-yl)ethynyl)-N-methylnicotinamido)-3-phenylpropan-2-yl dihydrogen phosphate]",remaining activity at 0.1 µM,CAMK4,100%
same,remaining activity at 0.1 µM,CSK,93%
same,remaining activity at 0.1 µM,PAK3,100%
same,remaining activity at 0.1 µM,MINK,100%
same,remaining activity at 0.1 µM,GSK3A,100%
same,remaining activity at 0.1 µM,FLT3(D835H),100%
same,remaining activity at 0.1 µM,MKK7,96%
same,remaining activity at 0.1 µM,TNIK,100%
same,remaining activity at 0.1 µM,ALK,100%
same,remaining activity at 0.1 µM,[1],91%
same,remaining activity at 0.1 µM,MARK4,94%
same,remaining activity at 0.1 µM,CAMK2A,100%
same,remaining activity at 0.1 µM,TLK2,100%
same,remaining activity at 0.1 µM,[2],100%
same,remaining activity at 0.1 µM,CDK4,93%
same,remaining activity at 0.1 µM,BLK,96%
same,remaining activity at 0.1 µM,PFTAIRE2,100%
same,remaining activity at 0.1 µM,PAK1,100%
same,remaining activity at 0.1 µM,RIOK3,100%
same,remaining activity at 0.1 µM,DYRK1A,85%
same,remaining activity at 0.1 µM,SGK3,100%
same,remaining activity at 0.1 µM,CLK3,93%
same,remaining activity at 0.1 µM,FLT3,100%
same,remaining activity at 0.1 µM,MLK1,96%
same,remaining activity at 0.1 µM,EPHB1,100%
same,remaining activity at 0.1 µM,NEK4,100%
same,remaining activity at 0.1 µM,SRPK1,100%
same,remaining activity at 0.1 µM,CSNK2A1,98%
same,remaining activity at 0.1 µM,YANK3,54%
